What was measured:
Human δ-opioid (DOP) = target: T1, Human δ-opioid (DOP) (Homo sapiens, UniProt P41143); test: Radioligand binding, human δ-opioid (DOP) membranes, FlashPlate, [3H]-Bremazocine; details: compound at 10 μM, [3H]-Bremazocine
T1 construct: purchased Perkin Elmer Biosignal
In short: (§1)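 Cloned human receptor membranes were coated onto FlashPlate wells and incubated with radioligand and compound (added from a 0.5 mM DMSO daughter plate) for 1 hour at room temperature in the dark. Scintillation counting gave percent inhibition, with DMSO defining total and reference ligand defining non-specific binding.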

Human κ-Opioid (KOP) = target: T2, Human κ-Opioid (KOP) (Homo sapiens, UniProt P41145); test: Radioligand binding, human κ-opioid (KOP) membranes, filtration, [3H]-Diprenorphine; details: compound at 10 μM, [3H]-Diprenorphine
T2 construct: purchased Perkin Elmer Biosignal
T2 sequence (P41145 whole entry): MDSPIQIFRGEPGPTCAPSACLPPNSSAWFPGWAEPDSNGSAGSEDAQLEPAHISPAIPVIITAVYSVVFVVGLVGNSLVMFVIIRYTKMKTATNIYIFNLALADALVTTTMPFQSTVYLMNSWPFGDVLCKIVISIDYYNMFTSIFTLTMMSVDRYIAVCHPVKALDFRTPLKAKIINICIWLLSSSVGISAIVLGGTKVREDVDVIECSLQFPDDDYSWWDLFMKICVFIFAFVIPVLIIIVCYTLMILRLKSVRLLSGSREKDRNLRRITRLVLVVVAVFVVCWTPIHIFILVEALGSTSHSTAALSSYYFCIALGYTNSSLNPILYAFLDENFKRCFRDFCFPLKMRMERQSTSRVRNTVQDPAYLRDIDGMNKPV
In short: (§2)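 Membranes from cloned human receptors were incubated with compound and radioligand for 1 hour at room temperature. Bound ligand was collected on 0.3% PEI-soaked filters, washed with cold 50 mM Tris-HCl pH 7.4, and counted by scintillation. Percent inhibition was computed against DMSO totals and reference-ligand nonspecific wells.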

Human Melanocortin (MC3) = target: T3, Human Melanocortin (MC3) (Homo sapiens, UniProt P41968); test: Radioligand binding, human melanocortin MC3 membranes, FlashPlate, [125I]-NDP-αMSH; details: compound at 10 μM, [125I]-NDP-αMSH
T3 construct: purchased Perkin Elmer Biosignal
T3 sequence (P41968 whole entry): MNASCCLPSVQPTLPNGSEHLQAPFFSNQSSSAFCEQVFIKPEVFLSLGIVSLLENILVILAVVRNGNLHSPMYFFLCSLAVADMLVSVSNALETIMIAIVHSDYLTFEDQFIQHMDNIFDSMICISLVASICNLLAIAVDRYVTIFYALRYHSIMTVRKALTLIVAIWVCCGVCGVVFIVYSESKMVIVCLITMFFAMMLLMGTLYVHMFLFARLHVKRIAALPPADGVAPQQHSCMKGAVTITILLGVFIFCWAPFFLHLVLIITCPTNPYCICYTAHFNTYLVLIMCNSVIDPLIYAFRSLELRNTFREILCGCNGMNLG
In short: as §1

Human Melanocortin (MC4) = target: T4, Human Melanocortin (MC4) (Homo sapiens, UniProt P32245); test: Radioligand binding, human melanocortin MC4 membranes, FlashPlate, [125I]-NDP-αMSH; details: compound at 10 μM, [125I]-NDP-αMSH
T4 construct: purchased Perkin Elmer Biosignal
T4 sequence (P32245 whole entry): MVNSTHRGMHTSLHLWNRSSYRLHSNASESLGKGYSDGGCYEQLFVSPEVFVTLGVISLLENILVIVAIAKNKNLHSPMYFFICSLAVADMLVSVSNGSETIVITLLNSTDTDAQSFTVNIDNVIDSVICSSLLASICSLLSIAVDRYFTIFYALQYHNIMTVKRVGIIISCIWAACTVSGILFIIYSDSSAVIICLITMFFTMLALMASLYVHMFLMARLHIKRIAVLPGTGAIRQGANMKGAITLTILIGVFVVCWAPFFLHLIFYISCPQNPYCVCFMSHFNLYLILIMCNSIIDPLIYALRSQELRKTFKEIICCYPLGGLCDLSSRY
In short: as §1

Human melanocortin (MC5) = target: T5, Human melanocortin (MC5) (Homo sapiens, UniProt P33032); test: Radioligand binding, human melanocortin MC5 membranes, FlashPlate, [125I]-NDP-αMSH; details: compound at 10 μM, [125I]-NDP-αMSH
T5 construct: purchased Perkin Elmer Biosignal
T5 sequence (P33032 whole entry): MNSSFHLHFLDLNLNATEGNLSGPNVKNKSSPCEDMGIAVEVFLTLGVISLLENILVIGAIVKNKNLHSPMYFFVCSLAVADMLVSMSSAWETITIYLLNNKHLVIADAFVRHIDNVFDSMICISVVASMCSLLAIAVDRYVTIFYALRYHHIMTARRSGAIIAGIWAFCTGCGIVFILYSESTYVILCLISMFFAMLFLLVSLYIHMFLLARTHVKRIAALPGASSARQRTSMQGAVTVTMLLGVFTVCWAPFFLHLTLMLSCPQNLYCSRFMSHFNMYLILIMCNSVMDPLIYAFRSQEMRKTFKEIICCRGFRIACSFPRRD
In short: as §1

[1] = target: T6, Human melanin-concentrating hormone (MCH1) (Homo sapiens, UniProt Q99705); test: Radioligand binding, human melanin-concentrating hormone MCH1 membranes, FlashPlate, [125I]-S36057; details: compound at 10 μM
T6 construct: purchased Perkin Elmer Biosignal
T6 sequence (Q99705 whole entry): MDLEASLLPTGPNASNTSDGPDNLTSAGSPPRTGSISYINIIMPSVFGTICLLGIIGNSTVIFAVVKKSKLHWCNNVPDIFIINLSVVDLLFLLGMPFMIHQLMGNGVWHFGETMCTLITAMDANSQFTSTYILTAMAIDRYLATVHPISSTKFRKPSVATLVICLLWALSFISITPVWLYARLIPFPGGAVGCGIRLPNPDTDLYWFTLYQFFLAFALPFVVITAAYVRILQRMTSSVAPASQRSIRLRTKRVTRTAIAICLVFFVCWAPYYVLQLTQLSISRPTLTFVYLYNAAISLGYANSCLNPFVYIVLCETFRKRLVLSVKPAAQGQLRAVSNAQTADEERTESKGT
In short: as §1

Human μ-opioid (MOP) = target: T7, Human μ-opioid (MOP) (Homo sapiens, UniProt P35372); test: Radioligand binding, human μ-opioid (MOP) membranes, FlashPlate, [3H]-Naloxone; details: compound at 10 μM, [3H]-Naloxone
T7 construct: purchased Perkin Elmer Biosignal
T7 sequence (P35372 whole entry): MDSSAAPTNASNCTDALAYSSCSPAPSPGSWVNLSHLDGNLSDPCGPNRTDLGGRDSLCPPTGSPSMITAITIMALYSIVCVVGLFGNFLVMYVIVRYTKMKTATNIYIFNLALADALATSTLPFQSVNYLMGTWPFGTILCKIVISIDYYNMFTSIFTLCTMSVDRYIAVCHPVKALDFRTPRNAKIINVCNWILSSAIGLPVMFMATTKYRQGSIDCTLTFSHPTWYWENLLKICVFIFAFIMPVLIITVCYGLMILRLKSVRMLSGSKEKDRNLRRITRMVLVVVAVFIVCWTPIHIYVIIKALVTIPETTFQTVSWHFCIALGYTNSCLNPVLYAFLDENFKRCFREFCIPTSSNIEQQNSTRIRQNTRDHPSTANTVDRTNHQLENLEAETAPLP
In short: as §1

Human neurokinin (NK1) = target: T8, Human neurokinin (NK1) (Homo sapiens, UniProt P25103); test: Radioligand binding, human neurokinin NK1 membranes, filtration, [125I]-Substance P; details: compound at 10 μM, [125I]-Substance P
T8 construct: purchased Perkin Elmer Biosignal
T8 sequence (P25103 whole entry): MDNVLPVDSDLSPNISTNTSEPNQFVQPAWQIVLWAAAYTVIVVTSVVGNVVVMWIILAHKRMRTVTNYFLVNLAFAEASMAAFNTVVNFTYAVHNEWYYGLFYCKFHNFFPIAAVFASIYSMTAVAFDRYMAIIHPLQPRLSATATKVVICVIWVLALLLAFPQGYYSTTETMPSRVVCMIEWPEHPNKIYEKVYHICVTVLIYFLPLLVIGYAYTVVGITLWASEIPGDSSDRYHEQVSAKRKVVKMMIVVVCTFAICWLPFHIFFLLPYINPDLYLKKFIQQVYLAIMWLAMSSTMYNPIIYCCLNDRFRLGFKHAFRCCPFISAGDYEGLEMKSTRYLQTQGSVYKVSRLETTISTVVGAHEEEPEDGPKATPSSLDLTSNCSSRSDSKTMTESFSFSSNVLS
In short: as §2

[2] = target: T9, Human neuropeptide Y (NPY-Y1) (Homo sapiens, UniProt P25929); test: Radioligand binding, human neuropeptide Y NPY-Y1 membranes, FlashPlate, [125I]-PYY; details: compound at 10 μM, [125I]-PYY
T9 construct: purchased Perkin Elmer Biosignal
T9 sequence (P25929 1-384): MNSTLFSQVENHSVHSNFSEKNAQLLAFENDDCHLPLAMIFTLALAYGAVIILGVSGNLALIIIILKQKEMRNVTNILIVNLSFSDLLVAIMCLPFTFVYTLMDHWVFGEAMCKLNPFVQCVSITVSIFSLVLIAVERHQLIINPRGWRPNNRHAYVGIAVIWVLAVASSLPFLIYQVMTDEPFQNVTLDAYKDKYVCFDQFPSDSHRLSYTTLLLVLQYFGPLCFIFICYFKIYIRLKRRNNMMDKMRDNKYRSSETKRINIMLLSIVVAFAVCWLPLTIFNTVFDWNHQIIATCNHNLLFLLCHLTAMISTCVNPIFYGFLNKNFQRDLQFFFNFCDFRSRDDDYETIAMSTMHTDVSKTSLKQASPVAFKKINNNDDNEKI
In short: as §1

Human opioid (ORL1) = target: T10, Human opioid (ORL1) (Homo sapiens, UniProt P41146); test: Radioligand binding, human opioid ORL1 membranes, FlashPlate, [125I]-Nociceptin; details: compound at 10 μM, [125I]-Nociceptin
T10 construct: purchased Perkin Elmer Biosignal
T10 sequence (P41146 whole entry): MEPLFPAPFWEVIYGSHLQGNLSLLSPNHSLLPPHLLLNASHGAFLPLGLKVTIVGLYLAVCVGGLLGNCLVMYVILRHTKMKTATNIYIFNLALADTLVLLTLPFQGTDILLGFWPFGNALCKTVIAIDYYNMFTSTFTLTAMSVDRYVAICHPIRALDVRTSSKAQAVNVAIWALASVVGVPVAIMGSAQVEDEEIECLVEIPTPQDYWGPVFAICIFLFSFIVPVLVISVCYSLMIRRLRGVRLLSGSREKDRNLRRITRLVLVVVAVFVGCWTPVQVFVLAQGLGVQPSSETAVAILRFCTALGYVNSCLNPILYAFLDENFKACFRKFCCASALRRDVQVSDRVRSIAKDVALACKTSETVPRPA
In short: as §1

Mouse urotensin (mUR2) = target: T11, Mouse urotensin (mUR2) (Mus musculus, UniProt Q8VIH9); test: Radioligand binding, mouse urotensin mUR2 membranes, FlashPlate, [125I]-Urotensin II; details: compound at 10 μM, [125I]-Urotensin II
T11 construct: purchased Perkin Elmer Biosignal
T11 sequence (Q8VIH9 1-385): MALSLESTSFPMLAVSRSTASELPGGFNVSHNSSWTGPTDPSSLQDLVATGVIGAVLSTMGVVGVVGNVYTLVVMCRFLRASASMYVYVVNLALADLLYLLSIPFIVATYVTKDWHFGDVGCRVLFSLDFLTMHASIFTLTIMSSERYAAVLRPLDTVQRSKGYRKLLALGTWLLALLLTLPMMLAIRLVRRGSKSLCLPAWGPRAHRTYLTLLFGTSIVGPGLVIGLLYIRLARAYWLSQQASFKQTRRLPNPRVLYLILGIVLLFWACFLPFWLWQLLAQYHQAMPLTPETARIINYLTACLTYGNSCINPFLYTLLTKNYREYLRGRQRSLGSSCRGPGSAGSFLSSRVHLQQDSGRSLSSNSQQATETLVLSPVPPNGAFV
In short: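 Cloned mouse urotensin (mUR2) receptor membranes from Perkin Elmer Biosignal were immobilized in FlashPlate microplates using a proprietary coating. Each well got 19.5 μl buffer, then 0.5 μl of DMSO, reference ligand, or compound. Adding 5 μl of [125I]-Urotensin II, diluted to 5× final concentration in binding buffer, started binding. Plates were sealed with TopSeal-A and incubated 1 hour at room temperature in the dark. Wells were counted for 30 seconds each on a TopCount after a 60-second delay, and percentage inhibition was calculated.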

[3] = [125I]-S36057, human MCH1 membranes

T1 sequence (P41143 whole entry): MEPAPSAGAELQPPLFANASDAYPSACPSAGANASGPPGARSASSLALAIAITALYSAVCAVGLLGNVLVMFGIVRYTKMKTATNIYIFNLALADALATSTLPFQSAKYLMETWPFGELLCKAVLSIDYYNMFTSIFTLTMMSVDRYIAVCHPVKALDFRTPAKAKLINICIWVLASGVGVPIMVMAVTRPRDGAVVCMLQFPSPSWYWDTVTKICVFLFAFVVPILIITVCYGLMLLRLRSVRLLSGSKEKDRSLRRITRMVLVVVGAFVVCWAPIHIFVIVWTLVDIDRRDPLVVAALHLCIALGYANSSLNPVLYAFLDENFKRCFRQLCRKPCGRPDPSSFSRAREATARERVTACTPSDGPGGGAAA

Structure (SMILES) | A1: inhibition of radioligand binding (Human δ-opioid (DOP); human DOP membranes) | A3: inhibition of radioligand binding (Human Melanocortin (MC3); human MC3 membranes) | A4: inhibition of radioligand binding (Human Melanocortin (MC4); human MC4 membranes) | A5: inhibition of radioligand binding (Human melanocortin (MC5); human MC5 membranes) | A7: inhibition of radioligand binding (Human μ-opioid (MOP); human MOP membranes) | A8: inhibition of radioligand binding (Human neurokinin (NK1); human NK1 membranes) | A9: inhibition of radioligand binding ([2]; human NPY-Y1 membranes) | A11: inhibition of radioligand binding (Mouse urotensin (mUR2); mouse mUR2 membranes) | A2: inhibition of radioligand binding (Human κ-Opioid (KOP); human KOP membranes) | A6: inhibition of radioligand binding [1, 3] | A10: inhibition of radioligand binding (Human opioid (ORL1); human ORL1 membranes) | further results
NCCCC(=O)NC1C(OCc2ccc3ccccc3c2)OC(COCc2ccc(Cl)cc2)C(O)C1OCc1ccc2ccccc2c1 (stereo not shown) [compound 395] | − (“−” indicates less than 50% inhibition at 10 μM) | + (“+” indicates greater than 50% inhibition at 10 μM) | + (“+” indicates greater than 50% inhibition at 10 μM) | + (“+” indicates greater than 50% inhibition at 10 μM) | − (“−” indicates less than 50% inhibition at 10 μM) | + (“+” indicates greater than 50% inhibition at 10 μM) | − (“−” indicates less than 50% inhibition at 10 μM) | − (“−” indicates less than 50% inhibition at 10 μM) | – | – | – | A2: inhibition of radioligand binding (Human κ-Opioid (KOP); human KOP membranes, 10 µM): − (“−” indicates less than 50% inhibition at 10 μM); A6: inhibition of radioligand binding ([1]; [125I]-S36057, human MCH1 membranes, 10 µM): − (“−” indicates less than 50% inhibition at 10 μM); A10: inhibition of radioligand binding (Human opioid (ORL1); human ORL1 membranes, 10 µM): + (“+” indicates greater than 50% inhibition at 10 μM)
N=C(N)NCCC(=O)NC1C(OCc2ccc(-c3ccccc3)cc2)OC(COCc2ccc3ccccc3c2)C(O)C1OCc1ccc(Cl)cc1 (stereo not shown) [compound 408] | − (“−” indicates less than 50% inhibition at 10 μM) | + (“+” indicates greater than 50% inhibition at 10 μM) | + (“+” indicates greater than 50% inhibition at 10 μM) | + (“+” indicates greater than 50% inhibition at 10 μM) | − (“−” indicates less than 50% inhibition at 10 μM) | + (“+” indicates greater than 50% inhibition at 10 μM) | − (“−” indicates less than 50% inhibition at 10 μM) | − (“−” indicates less than 50% inhibition at 10 μM) | − (“−” indicates less than 50% inhibition at 10 μM) | + (“+” indicates greater than 50% inhibition at 10 μM) | + (“+” indicates greater than 50% inhibition at 10 μM) | –
COCC1OC(OCc2ccc(Cl)cc2)C(NC(=O)CNC(=N)N)C(OCc2ccc(Cl)cc2)C1O (stereo not shown) [compound 200] | – | – | – | – | – | – | – | – | – | – | – | A1: inhibition of radioligand binding (Human δ-opioid (DOP); FlashPlate): − (“−” indicates less than 50% inhibition at 10 μM); A2: inhibition of radioligand binding (Human κ-Opioid (KOP); filtration): − (“−” indicates less than 50% inhibition at 10 μM); A3: inhibition of radioligand binding (Human Melanocortin (MC3); FlashPlate): + (“+” indicates greater than 50% inhibition at 10 μM); A4: inhibition of radioligand binding (Human Melanocortin (MC4); FlashPlate): + (“+” indicates greater than 50% inhibition at 10 μM); A5: inhibition of radioligand binding (Human melanocortin (MC5); FlashPlate): + (“+” indicates greater than 50% inhibition at 10 μM); A6: inhibition of radioligand binding ([1]; [125I]-S36057, FlashPlate): − (“−” indicates less than 50% inhibition at 10 μM); A7: inhibition of radioligand binding (Human μ-opioid (MOP); FlashPlate): − (“−” indicates less than 50% inhibition at 10 μM); A8: inhibition of radioligand binding (Human neurokinin (NK1); filtration): + (“+” indicates greater than 50% inhibition at 10 μM); A9: inhibition of radioligand binding ([2]; FlashPlate): − (“−” indicates less than 50% inhibition at 10 μM); A10: inhibition of radioligand binding (Human opioid (ORL1); FlashPlate): − (“−” indicates less than 50% inhibition at 10 μM); A11: inhibition of radioligand binding (Mouse urotensin (mUR2); FlashPlate): − (“−” indicates less than 50% inhibition at 10 μM)
CSC1OC(COCc2ccc(-c3ccccc3)cc2)C(O)C(OCc2ccc3ccccc3c2)C1NC(=O)CCCN (stereo not shown) [compound 315] | – | – | – | – | – | – | – | – | – | – | – | A1: inhibition of radioligand binding, human δ-opioid (DOP) (Human δ-opioid (DOP)): − (“−” indicates less than 50% inhibition at 10 μM); A2: inhibition of radioligand binding, human κ-opioid (KOP) (Human κ-Opioid (KOP)): − (“−” indicates less than 50% inhibition at 10 μM); A3: inhibition of radioligand binding, human melanocortin (MC3) (Human Melanocortin (MC3)): − (“−” indicates less than 50% inhibition at 10 μM); A4: inhibition of radioligand binding, human melanocortin (MC4) (Human Melanocortin (MC4)): − (“−” indicates less than 50% inhibition at 10 μM); A5: inhibition of radioligand binding, human melanocortin (MC5) (Human melanocortin (MC5)): − (“−” indicates less than 50% inhibition at 10 μM); A6: inhibition of radioligand binding, human melanin-concentrating hormone (MCH1) ([1]; [125I]-S36057): − (“−” indicates less than 50% inhibition at 10 μM); A7: inhibition of radioligand binding, human μ-opioid (MOP) (Human μ-opioid (MOP)): − (“−” indicates less than 50% inhibition at 10 μM); A8: inhibition of radioligand binding, human neurokinin (NK1) (Human neurokinin (NK1)): + (“+” indicates greater than 50% inhibition at 10 μM); A9: inhibition of radioligand binding, human neuropeptide Y (NPY-Y1) [2]: − (“−” indicates less than 50% inhibition at 10 μM); A10: inhibition of radioligand binding, human opioid (ORL1) (Human opioid (ORL1)): − (“−” indicates less than 50% inhibition at 10 μM); A11: inhibition of radioligand binding, mouse urotensin (mUR2) (Mouse urotensin (mUR2)): − (“−” indicates less than 50% inhibition at 10 μM)
N=C(N)NCCC(=O)NC1C(OCc2ccc(Cl)cc2)OC(COCc2ccc(Cl)cc2)C(O)C1OCc1ccc(Cl)cc1 (stereo not shown) [compound 428] | − (“−” indicates less than 50% inhibition at 10 μM) | + (“+” indicates greater than 50% inhibition at 10 μM) | + (“+” indicates greater than 50% inhibition at 10 μM) | + (“+” indicates greater than 50% inhibition at 10 μM) | − (“−” indicates less than 50% inhibition at 10 μM) | + (“+” indicates greater than 50% inhibition at 10 μM) | − (“−” indicates less than 50% inhibition at 10 μM) | − (“−” indicates less than 50% inhibition at 10 μM) | − (“−” indicates less than 50% inhibition at 10 μM) | + (“+” indicates greater than 50% inhibition at 10 μM) | + (“+” indicates greater than 50% inhibition at 10 μM) | –
